Data set [1] addresses T1, FNO from M. smithii (Methanobrevibacter smithii, UniProt A5UJ76). The data set can be described thus: Fluorometric FNO activity inhibition assay (F420 reduction with NADPH). Type of data set: biochemical. As to the method: According to the fluorometric assay of FNO activity, we observed an evident decrease in F420 reduction rates upon 15 min preincubation of FNO with increasing levels of the ten representative compounds of interest (the superimposition of representative residual activity plots obtained with β-D-glucose pentaacetate, mangiferin and baicalin are shown in Fig. 11; the full panel is provided in Supplemental Information).
FNO catalyses the reduction of NADP^+ with F420H2 via hydride transfer, and the reverse reaction, i.e. the reduction of F420 with NADPH. Here, the spectrofluorometric assay of FNO activity was based on monitoring the decrease in F420 emission at 470 nm upon excitation at 420 nm. Briefly, FNO (4 nM) was incubated with 0.5 mM F420 (purified from T. roseum as described in the Supplementary Information) and 0.5 mM NADPH (this concentration was selected on the basis of Km values in other methanogenic organisms[42]) at 37 °C in the presence or in the absence of increasing concentrations of the compounds of interest in 50 mM sodium citrate, pH 6.0. […] The residual activity ( a ) was expressed as the ratio of the initial velocities of the product formation in the presence ( V0,i ) and in the absence ( V0 ) of a given inhibitor concentration [Ii]. Raw data were processed as described elsewhere.

In data set [2] the test system is FNO. The data set can be described thus: Competitive binding test with NADP+ on biosensor. The arrangement: species or system Methanobrevibacter smithii. The method, then:
A competitive binding test between NADP^+ and three out of the ten compounds (with high, moderate and low affinity for FNO, respectively) was performed to identify the binding site on FNO. The protocol involved the addition of a given concentration of baicalin, mangiferin and β-D-glucose pentaacetate to both free and NADP^+-saturated FNO.

The test system of data set [3] is FNO. The data set can be described thus: pH dependence of mangiferin-FNO binding (biosensor, linkage analysis). As to conditions: 7.35 ± 0.33 in free enzyme.
Description: In order to evaluate the effects of pH on the enzyme-ligand interaction, the binding of mangiferin (6.25–62.5 µM) to FNO was studied at different pH values in the range 6.0–8.0.
To evaluate the effects of pH on the enzyme-ligand interaction, the binding studies between mangiferin and FNO were replicated in a pH range between 6.4 and 8. The observed dependence of experimental KD from pH was analyzed according to a classic linkage relationship, protons being considered as heterotropic ligands for FNO[40]. This model involves a macromolecule (FNO) having a binding site for a ligand (mangiferin), and heterotropic binding sites able to accommodate a second ligand (H^+). These binding sites for protons present on the macromolecule can be grouped into two main sets: one with n binding sites with an ionization constant λ1, and one with m binding sites, each having an ionization constant equal to λ2. Therefore, the macromolecule can be described in three main ionization conditions: at low and at high pH values the fully protonated and the completely deprotonated forms prevail, respectively, whereas the intermediate form prevails at pH values equal to:1 pH=-logλ1-logλ2/2
Upon binding, the proton binding sites have their ionization constants shifted to λ3 and λ4, respectively. […]
Data set [4] deals with T1, FNO from M. smithii. The data set can be described thus: SPR optical biosensor binding to immobilized FNO. As to conditions: for kon / koff / kass / kdiss: PBS pH 7.4; for kon: read-out: kass; for koff: read-out: kdiss. As to the method: FNO was covalently immobilized on a carboxylate surface according to the protocol described in the Materials and Methods section. The change in the signal related to immobilization of the enzyme (ΔR ≅ 1,000 arcsec) corresponded to the achievement of a partial Langmuir monolayer for a protein of 120 kDa (2 ng/mm^2). The affinities of FNO for the ten compounds of interest were derived from the fit of raw data (representative sensorgrams are shown in Fig. 8; full panel is provided in Supplemental Information) to a mono-exponential model.
FNO from M. smithii (isolated as described in the Supplementary Information) was covalently coupled to the carboxylate surface of the sensor via EDC/NHS chemistry. Upon successful immobilization of FNO, unreacted carboxyl groups were blocked with ethanolamine 1 M pH 8.5, and the surface was eventually equilibrated with PBS. Independent additions of each molecule at different concentrations (β-D-glucose pentacetate 1.25–62.5 µM; mangiferin 3.125–37.5 µM; baicalin 1.25–25 µM; frangulin A 30–480 nM; ononin 29–465 nM; 5z-caffeoylquinic acid […]; ZINC35442308 0.30–4.92 µM; ZINC248099510 0.31–4.93 µM; ZINC2120951 0.32–5.1 µM; ZINC9271779 0.32–5.2 µM) to surface-blocked FNO were performed, each time monitoring the association kinetics until equilibrium. […] The affinities between surface-blocked FNO and soluble ligands were derived from the fit of raw data to single exponential model.

For data set [5], the target named is T1, FNO from M. smithii. As to the kind of experiment: Molecular docking (AutoDock Vina) onto the homology model of FNO. As to conditions: predicted. The text has this: The 8,012 compounds selected from the Zbc database subset on molecular weight and clogP criteria were individually docked against the homology model of FNO from M. smithii using a Perl/Python pipeline on AutoDock Vina. The residues constituting the catalytic site of FNO were retrieved from the available literature[19] and explicitly defined as the grid centre for all ligands. The quantitative results of docking in terms of ΔGpred of each highest-score pose were collected into a single array (ΔGpred values ranged between − 4.9 and − 10.5 kcal/mol), which was then merged with the other structural descriptors (as PSA, H-donors and acceptors, cLogP, MW, Drug-likeness, Total surface area) available for each compound as summarized in Supplementary Information.
In the absence of a crystallographic structure for FNO from M. smithii, its three-dimensional structure was obtained by homology modelling, according to a previously reported procedure. […]
8,012 molecules selected from the Zbc subset of ZINC database[36] on molecular weight (350–450 amu) and hydrophobicity (cLogP < 3.85) criteria were iteratively docked to the homology model of FNO from M. smithii using AutoDock Vina[37]. […] Structural properties of each molecule and calculated binding affinities to FNO were globally analysed with DataWarrior[38].

Setting [6] is: 0.5 mM NADPH, 15 min preincubation, pH 6.0, 37 °C, read-out: Ki.
Where [7] appears, read: experimental equilibrium constant, read-out: KD,E.
The mark [8] stands for this setting: 0.5 mM NADPH, 15 min preincubation, pH 6.0, 37 °C.

Read-outs that look alike come from different tables or passages of the source.

T1 sequence (A5UJ76 entry or part of it): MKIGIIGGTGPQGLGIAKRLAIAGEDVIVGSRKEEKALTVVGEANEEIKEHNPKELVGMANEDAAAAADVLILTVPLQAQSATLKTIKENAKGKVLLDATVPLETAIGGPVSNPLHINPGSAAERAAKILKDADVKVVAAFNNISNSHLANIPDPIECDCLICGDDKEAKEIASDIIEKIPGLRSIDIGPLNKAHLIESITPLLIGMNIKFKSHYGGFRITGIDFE

In the case of `O=c1c2cc(O)c(O)cc2oc2cc(O)c([C@@H]3O[C@H](CO)[C@@H](O)[C@H](O)[C@H]3O)c(O)c12` [Mangiferin], the Ki at FNO from M. smithii [1] (setting [6]) amounted to 650 ± 250 nM. Further, in the data set on FNO [2], the “biosensor response on NADP+-saturated FNO with respect to free enzyme” value (“biosensor response … to free enzyme” below) is on record as “significantly lower”. The figures for the “pKa of histidine residue in FNO-mangiferin complex” value in the data set on FNO [3] (pH 6.4 to 7.4) and in the data set with FNO [3] (pH 7.4 to 8.0) were 5.26 ± 2.61 and 8.21 ± 0.12, respectively. Besides, the kon at FNO from M. smithii [4] is 4820 M⁻¹ s⁻¹. Further, the koff at FNO from M. smithii [4] came to 0.002 ± 0.00097 s⁻¹. In addition, at FNO from M. smithii [4] (setting [7]), the Kd was 400 ± 200 nM. At FNO from M. smithii [5], the “affinity for FNO with respect to ZINC05409528” value is on record as “nearly sevenfold lower affinity”.

The molecule `O=C(O)[C@H]1O[C@@H](Oc2cc3oc(-c4ccccc4)cc(=O)c3c(O)c2O)[C@H](O)[C@@H](O)[C@@H]1O` [Baicalin] yielded a Ki on FNO from M. smithii [1] of 45 ± 3 nM. Also, the “biosensor response … to free enzyme” value with FNO [2] was “significantly lower”. For the same molecule, on FNO from M. smithii [4], binding was put at a Kd of 65 ± 28 nM, the kon turned out to be 3870 M⁻¹ s⁻¹ and the koff was found to be 0.00025 ± 0.0001 s⁻¹.

Regarding `CC(=O)OC[C@H]1O[C@@H](OC(C)=O)[C@H](OC(C)=O)[C@@H](OC(C)=O)[C@@H]1OC(C)=O` [β-D-glucose pentaacetate], at FNO from M. smithii [1] (setting [6]), the Ki was found to be 3960 ± 200 nM. The “biosensor response … to free enzyme” value with FNO [2] is on record as “significantly lower”. For the same molecule, at FNO from M. smithii [4], the kon turned out to be 2720 M⁻¹ s⁻¹ and the koff came to 0.013 ± 0.005 s⁻¹. For the same molecule, the dissociation constant Kd at FNO from M. smithii [4] (setting [7]) was determined as 4850 ± 1850 nM.

As for `Nc1ncnc2c1nc(NN=Cc1ccccc1)n2C1OC(CO)C(O)C1O` (stereo not drawn) [ZINC9271779], the affinity at FNO from M. smithii [1] (setting [8]), expressed as Ki, was 1070 ± 340 nM. On FNO from M. smithii [4], the kass is reported as 1,147 ± 267 M^−1 s^−1 and the kdiss stood at 0.0078 ± 0.0008 s⁻¹. The Kd at FNO from M. smithii [4] (setting [7]) was found to be 6800 ± 1700 nM.

In the case of `COc1ccc(-c2coc3cc(O[C@@H]4O[C@H](CO)[C@@H](O)[C@H](O)[C@H]4O)ccc3c2=O)cc1` [Ononin], at FNO from M. smithii [1] (setting [6]), the Ki was 205 ± 69 nM. For the same molecule, at FNO from M. smithii [4], the kon is 29700 M⁻¹ s⁻¹ and the koff was found to be 0.0072 ± 0.0033 s⁻¹. Also, the Kd at FNO from M. smithii [4] (setting [7]) stood at 240 ± 110 nM.

For `COc1cc(OC)c2c(C)c(CC(=O)NCC(=O)NCC(=O)O)c(=O)oc2c1` [ZINC2120951], the affinity at FNO from M. smithii [1] (setting [8]) corresponds to a Ki of 970 ± 670 nM. Besides, at FNO from M. smithii [4], the kass was 2,423 ± 116 M^−1 s^−1 and the kdiss is 0.004 ± 0.001 s⁻¹. The Kd at FNO from M. smithii [4] (setting [7]) worked out at 1650 ± 410 nM.

In the case of `Cc1cc(O)c2c(c1)C(=O)c1cc(O[C@@H]3O[C@@H](C)[C@H](O)[C@@H](O)[C@H]3O)cc(O)c1C2=O` [Frangulin A], the “increase of inhibitory potency from β-D-glucose pentaacetate” value on FNO from M. smithii [1] (0.5 mM NADPH) is on record as “approximately 100 fold”. In addition, on FNO from M. smithii [1] (setting [6]), the Ki was 49 ± 14 nM. At FNO from M. smithii [4], the kon worked out at 35200 M⁻¹ s⁻¹ and the koff stood at 0.0045 ± 0.0014 s⁻¹. The Kd at FNO from M. smithii [4] (setting [7]) stood at 130 ± 50 nM.

As to `O=C(C=Cc1ccc(O)c(O)c1)OC1CC(O)(C(=O)O)CC(O)C1O` (stereo not drawn) [5z-caffeoylquinic acid], at FNO from M. smithii [1] (setting [8]), the Ki stood at 210 ± 140 nM. Moreover, at FNO from M. smithii [4], the kass is listed as 20,406 ± 2,270 M^−1 s^−1 and the kdiss worked out at 0.005 ± 0.003 s⁻¹. Moreover, the Kd on FNO from M. smithii [4] (setting [7]) is 230 ± 160 nM.

The Ki is the dissociation constant of the complex between target and ligand, obtained from inhibition or displacement. As usually defined, the Kd is the free concentration of one partner at which half of the binding sites on the other are occupied at equilibrium, for simple one-to-one binding.

The values are drawn from PMC7588429, “Structure/activity virtual screening and in vitro testing of small molecule inhibitors of 8-hydroxy-5-deazaflavin:NADPH oxidoreductase from gut methanogenic bacteria” (Scientific Reports, 2020).
